The term inhibition denotes the percentage by which the read-out fell short of the control. Higher therefore signals strong suppression.

In assay [1] the target is T1, G6PDH (glucose-6-phosphate dehydrogenase) (Rattus norvegicus, UniProt P05370).
T1 construct: gene G6pdx; native cytosolic enzyme in soluble lysate supernatant of primary astrocyte-rich cultures; not purified
Put plainly: NADPH absorbance at […] nm in astrocyte lysate. The settings on record: 3.3 mM G6P, 0.2 mM NADP+, 6.3 mM MgCl2, 5 mM maleimide, pH 7.5, room temperature; read-out: half-maximal inhibition. In kind it is biochemical.

For assay [2], the target named is T2, 6PGDH (6-phosphogluconate dehydrogenase) (Rattus norvegicus, UniProt P85968).
T2 construct: gene Pgd; native cytosolic enzyme in soluble lysate supernatant of primary astrocyte-rich cultures; not purified
T2 sequence (P85968 2-483): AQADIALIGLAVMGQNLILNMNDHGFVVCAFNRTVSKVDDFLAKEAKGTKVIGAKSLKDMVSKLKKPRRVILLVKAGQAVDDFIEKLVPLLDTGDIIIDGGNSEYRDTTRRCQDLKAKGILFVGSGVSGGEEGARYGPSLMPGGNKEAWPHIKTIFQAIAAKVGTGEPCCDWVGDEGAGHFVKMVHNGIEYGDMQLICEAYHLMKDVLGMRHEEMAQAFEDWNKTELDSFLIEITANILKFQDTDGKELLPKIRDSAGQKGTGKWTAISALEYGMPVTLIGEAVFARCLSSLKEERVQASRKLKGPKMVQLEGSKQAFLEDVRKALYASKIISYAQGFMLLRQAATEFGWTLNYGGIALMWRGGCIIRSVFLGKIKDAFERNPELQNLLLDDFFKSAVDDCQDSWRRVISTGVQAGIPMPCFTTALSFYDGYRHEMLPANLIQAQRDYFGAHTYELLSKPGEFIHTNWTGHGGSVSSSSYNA
Put plainly: NADPH absorbance at […] nm in astrocyte lysate. The class given is biochemical.

T1 sequence (P05370 2-515): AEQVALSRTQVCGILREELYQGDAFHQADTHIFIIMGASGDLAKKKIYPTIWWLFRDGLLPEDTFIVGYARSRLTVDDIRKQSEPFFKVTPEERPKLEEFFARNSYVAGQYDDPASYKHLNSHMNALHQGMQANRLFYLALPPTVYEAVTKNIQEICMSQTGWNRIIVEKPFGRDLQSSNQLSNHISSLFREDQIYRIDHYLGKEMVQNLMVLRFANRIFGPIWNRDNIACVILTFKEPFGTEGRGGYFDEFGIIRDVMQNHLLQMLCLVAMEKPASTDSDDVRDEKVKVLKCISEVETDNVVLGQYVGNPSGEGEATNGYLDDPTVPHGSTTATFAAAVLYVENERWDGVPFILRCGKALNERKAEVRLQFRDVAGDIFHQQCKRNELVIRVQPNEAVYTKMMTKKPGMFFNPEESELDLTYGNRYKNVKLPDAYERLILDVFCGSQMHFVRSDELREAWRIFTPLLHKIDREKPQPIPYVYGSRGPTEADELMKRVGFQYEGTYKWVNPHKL

`C[C@]12CC[C@H](O)CC1=CC[C@@H]1[C@@H]2CC[C@]2(C)C(=O)CC[C@@H]12` [DHEA]: the IC50 in assay [1] was 9.2 ± 3.5 µM.

As to `N#Cc1cc(Nc2ncc3c(n2)CCCCC3=O)cs1` [G6PDi-1], in assay [2], testing at 100 µM gave an inhibition of 15%.

The values are drawn from article PMC10471714, “G6PDi-1 is a Potent Inhibitor of G6PDH and of Pentose Phosphate pathway-dependent Metabolic Processes in Cultured Primary Astrocytes” (Neurochemical Research, 2023).
